In US10059955B2, “Hibiscus cannabinus feruloyl-CoA:monolignol transferase” (Wisconsin Alumni Research Foundation (WARF), priority 2011, dated 2018):
“Also recorded” adds a separate entry of the source.

B1: Angelica sinensis FMT: Angelica sinensis clone Dq155 pdest17 feruloyl-CoA:monolignol transferase enzyme, SEQ ID NO:2 (protein)
chain: MTIMEVQVVSKKMVKPSVPTPDHHKTCKLTAFDQIAPPDQVPIIYFYNSSNIHNIREQLVKSLSETLTKFYPLAGRFVQDGFYVDCNDEGVLYVEAEVNIPLNEFIGQAKKNIQLINDLVPKKNFKDIHSYENPIVGLQMSYFKCGGLAICMYLSHVVADGYTAAAFTKEWSNTTNGIINGDQLVSSSPINFELATLVPARDLSTVIKPAVMPPSKIKETKVVTRRFLFDENAISAFKDHVIKSESVNRPTRVEVVTSVLWKALINQSKLPSSTLYFHLNFRGKTGINTPPLDNHFSLCGNFYTQVPTRFRGGNQTKQDLELHELVKLLRGKLRNTLKNCSEINTADGLFLEAASNFNIIQEDLEDEQVDVRIFTTLCRMPLYETEFGWGKPEWVTIPEMHLEIVFLLDTKCGTGIEALVSMDEADMLQFELDPTISAFAS
B2: Hibiscus cannabinus FMT: Hibiscus cannabinus (Kenaf) feruloyl-CoA:monolignol transferase enzyme, SEQ ID NO:9, expressed with N-terminal 6xHis tag in E. coli (protein)
chain: MATHSTIMFSVDRNDVVFVKPFKPTPSQVLSLSTIDNDPNLEIMCHTVFVYQANADFDVKPKDPASIIQEALSKLLVYYYPLAGKMKRETDGKLRIACTADDSVPFLVATADCKLSSLNHLDGIDVHTGKEFALDFASESDGGYYHPLVMQVTKFICGGFTIALSLSHSVCDGFGAAQIFQALTELASGRNEPSVKPVWERQLLVAKPAEEIPRSIVDKDLSAASPYLPTTDIVHACFYVTEESIKTLKMNLIKESKDESITSLEVLSAYIWRARFRALKLSPDKTTMLGMAVGIRRTVKPRLPEGYYGNAFTSANTAMTGKELDQGPLSKAVKQIKESKKLASENDYIWNLMSINEKLRELNSKFEAAAGSTMVITDWRRLGLLEDVDFGWKGSVNMIPLPWNMFGYVDLVLLLPPCKLDQSMKGGARVLVSFPTAAIAKFKEEMDALKHDNKVAGDALVI
modifications: N-terminal 6xHis tag

Key:
[1] = Solubility of the assay product coniferyl ferulate in the aqueous reaction mixture; type: physicochemical; conditions: before addition of methanol to 50%
Method: The FMT activity assay contained 100 mM MOPS pH 6.8, 1 mM dithiothreitol (DTT), 1 mM feruloyl-CoA, 1 mM coniferyl alcohol, 3.9 μg of purified FMT protein and deionized water to a volume of 50 μL. After a 30-minute incubation, 1 μL of 10 M hydrochloric acid was added to stop the reaction. Because the product synthesized in the reaction, coniferyl ferulate (CAFA), is insoluble, 50 μL of methanol was added to solubilize the CAFA. Prior to UPLC, protein and insoluble material were removed by filtering through an Amicon Ultracel 10K membrane filter (Millipore). The flow-through was analyzed using an Acquity Ultra Performance LC with an Acquity UPLC BEH C18 1.7 μm 2.1×100 mm column and the Acquity Console and Empower 2 Software, all from Waters Corporation. The solvents used in this method were solvent A, 0.1% trifluoroacetic acid, and solvent B, 100% acetonitrile. Samples were analyzed using the following gradient conditions, 13% B, for 5 minutes, 1 minute linear gradient to 42% B, held for 4 minutes, 1 minute linear gradient to 100% B, held for 1 minutes and 3 minutes at 13% B with a flow rate of 0.3 ml/minute. This method was then used to analyze a 10 μL injection of each assay reaction; standards for each of the substrates along with chemically synthesized CAFA were used to determine retention times for each compound. […]

[2] = tested on: feruloyl-CoA:monolignol transferase from Angelica sinensis; assay: FMT enzymatic assay with purified recombinant Angelica sinensis FMT (UPLC detection of product); type: biochemical; conditions: for enzyme activity with monolignol as acyl acceptor substrate: feruloyl-CoA as acyl donor, FIGS. 2, 4, 5; for product formed from acyl-CoA donor substrate: coniferyl alcohol as acceptor, FIGS. 2, 6, 7
Method: The feruloyl-CoA, p-coumaroyl-CoA, and caffeoyl-CoA substrates used in the FMT assay were enzymatically synthesized using the tobacco 4-coumarate-CoA-ligase (4CL) with a c-terminal HIS tag in pCRT7/CT TOPO, provided by Eran Pichersky. Following a method modified from Beuerle and Pichersky (Anal. Biochem. 302(2): 305-12 (2001)) 3.3 mg of ferulic acid, coumaric acid or caffeic acid, 2 mg coenzyme A, and 6.9 mg ATP were added to 50 mM Tris-hydrochloride pH 8 and 2.5 mM magnesium chloride in a final volume of 10 ml. The reaction was started by adding 0.25 mg 4CL, protein purified as described by the method of Beurerle and Pichershy. After a five-hour incubation at room temperature, additional 6.9 mg ATP, 2 mg coenzyme A, and 0.25 mg purified 4CL were added and the reaction was incubated overnight. The CoA esters were purified on an SPE cartridge as described in Beuerle and Pichersky (2001).
The FMT activity assay contained 100 mM MOPS pH 6.8, 1 mM dithiothreitol (DTT), 1 mM feruloyl-CoA, 1 mM coniferyl alcohol, 3.9 μg of purified FMT protein and deionized water to a volume of 50 μL. After a 30-minute incubation, 1 μL of 10 M hydrochloric acid was added to stop the reaction. Because the product synthesized in the reaction, coniferyl ferulate (CAFA), is insoluble, 50 μL of methanol was added to solubilize the CAFA. Prior to UPLC, protein and insoluble material were removed by filtering through an Amicon Ultracel 10K membrane filter (Millipore). The flow-through was analyzed using an Acquity Ultra Performance LC with an Acquity UPLC BEH C18 1.7 μm 2.1×100 mm column and the Acquity Console and Empower 2 Software, all from Waters Corporation. The solvents used in this method were solvent A, 0.1% trifluoroacetic acid, and solvent B, 100% acetonitrile. Samples were analyzed using the following gradient conditions, 13% B, for 5 minutes, 1 minute linear gradient to 42% B, held for 4 minutes, 1 minute linear gradient to 100% B, held for 1 minutes and 3 minutes at 13% B with a flow rate of 0.3 ml/minute. This method was then used to analyze a 10 μL injection of each assay reaction; standards for each of the substrates along with chemically synthesized CAFA were used to determine retention times for each compound.
Purified recombinant enzyme was assayed for FMT activity using a reaction mixture containing 2 mM coniferyl alcohol, […], 100 mM HEPES pH 7.4 and 1 mM DTT. The second most abundant BAHD acyltransferase gene when incubated with Coniferyl alcohol and feruloyl-CoA produced a compound with the retention time of authentic coniferyl ferulate (CAFA) (FIG. 2). […] The addition of methanol to 50% after stopping the enzyme with acid was required to analyze the product by UPLC. The insolubility of the product made partial purification easy as the product was separated from the substrates by centrifugation.

[3] = tested on: Angelica sinensis feruloyl-CoA:monolignol transferase; assay: FMT enzyme assay of transgenic Arabidopsis stems; type: biochemical; conditions: none with empty vector, FIG. 11B
Text: Arabidopsis were transformed by standard procedures with the Angelica sinensis feruloyl-CoA:monolignol transferase nucleic acids described herein. […] FMT expression was detected by Reverse Transcriptase PCR of […] isolated from the transgenic Arabidopsis leaves. Enzymatic activity by the expressed FMT was detected using the assay described in Example 1.

Angelica sinensis FMT = assay: FMT enzyme assay of transgenic poplar leaf extracts; type: biochemical; conditions: extracts from transgenic hybrid poplar expressing YFP-FMT; none in wild type or no enzyme control; FIG. 10B
Text: Hybrid poplar (Populus alba×grandidentata) was transformed using Agrobacterium tumefaciens EHA105 employing a common leaf disk inoculation. Two constructs were created to drive the expression of FMT in poplar: 1) 35S::YFP-FMT (cauliflower mosaic virus ubiquitous 35S promoter with an N-terminal tagged Yellow Fluorescent Protein), and 2) CesA8::YFP-FMT (poplar xylem-specific secondary cell wall specific cellulose synthase 8 promoter with an N-terminal tagged Yellow Fluorescent Protein). The binary plasmids were inserted into EHA105 using the freeze-thaw technique, and incubated overnight in liquid Woody Plant Media (WPM) supplemented with 100 μM acetosyringone. Leaf disks were cut and co-cultured with EHA105 for one hour at room temperature, blotted dry and plated abaxailly onto WPM supplemented with 0.1 μM each α-naphthalene acetic acid (NAA), 6-benzylaminopurine (BA), and thiadiazuron (TDZ) and solidified with 3% (w/v) agar and 1.1% (w/v) phytagel (WPM 0.1/0.1/0.1). […]
Purification of YFP-FMT was via GFPtrap_A (Chromotek) following the manufactures guidelines. […] These samples were analyzed by western blot and the UPLC method described in the Examples above. Formation of coniferyl ferulate was also detected by comparison of the UPLC traces of leaf extracts with authentic coniferyl ferulate.

Hibiscus cannabinus FMT = assay: FMT enzymatic assay with purified Kenaf FMT (UPLC detection of coniferyl ferulate); type: biochemical; conditions: Ni2+ column fractions 29 and 30; 1 mM feruloyl CoA, 1 mM coniferyl alcohol, pH 6, 45 min; FIG. 12B
Method: The feruloyl CoA, p-coumaroyl CoA, and caffeoyl CoA substrates used in the FMT assay were enzymatically synthesized using the tobacco 4-coumarate CoA-ligase (4CL) with a c-terminal HIS tag in pCRT7/CT TOPO. Following a method modified from Beuerle and Pichersky (2001) 3.3 mg of ferulic acid, coumaric acid or caffeic acid, 2 mg coenzyme A, and 6.9 mg ATP were 50 mM Tris-hydrochloride pH 8, 2.5 mM magnesium chloride in a final volume of 10 ml. The reaction was started by adding 0.25 mg 4CL protein, purified as described by the method of Beurerle and Pichershy. After a five-hour incubation at room temperature, an additional 6.9 mg ATP, 2 mg coenzyme A, and 0.25 mg purified 4CL were added and the reaction was incubated overnight. […]
The FMT activity assay contained 100 mM sodium phosphate buffer pH 6, 1 mM dithiothreitol (DTT), 1 mM feruloyl CoA, 1 mM coniferyl alcohol, 0.5 μg of purified Kenaf FMT protein and deionized water to a volume of 50 μLL. […] The flow-through was analyzed using an Acquity Ultra Performance LC with an Acquity UPLC BEH C18 1.7 μm 2.1×100 mm column and the Acquity Console and Empower 2 Software, all from Waters Corporation. […] Samples were analyzed using the following gradient conditions, 13% B, for 5 minutes, 1 minute linear gradient to 42% B, held for 4 minutes, 1 minute linear gradient to 100% B, held for 1 minute and 3 minutes at 13% B with a flow rate of 0.3 ml/minute. […]

Molecule | enzyme activity with monolignol as acyl acceptor substrate [2] | product formed from acyl-CoA donor substrate [2] | other results
COc1cc(/C=C/COC(=O)/C=C/c2ccc(O)c(OC)c2)ccc1O [coniferyl ferulate] |  |  | solubility of product in water / assay mixture [1]: mostly insoluble in water; also recorded: partially insoluble
COc1cc(/C=C/CO)cc(OC)c1O [sinapyl alcohol] | active |  | 
OC/C=C/c1ccc(O)cc1 [p-coumaryl alcohol] | active |  | 
COc1cc(/C=C/CO)ccc1O [coniferyl alcohol] | active |  | 
COc1cc(/C=C/C(=O)SCCNC(=O)CCNC(=O)[C@H](O)C(C)(C)COP(=O)(O)OP(=O)(O)OC[C@H]2O[C@@H](n3cnc4c(N)ncnc43)[C@H](O)[C@@H]2OP(=O)(O)O)ccc1O [feruloyl-CoA] |  | substantial product | 
CC(C)(COP(=O)(O)OP(=O)(O)OC[C@H]1O[C@@H](n2cnc3c(N)ncnc32)[C@H](O)[C@@H]1OP(=O)(O)O)[C@@H](O)C(=O)NCCC(=O)NCCSC(=O)/C=C/c1ccc(O)c(O)c1 [caffeoyl-CoA] |  | very little product | 
CC(C)(COP(=O)(O)OP(=O)(O)OC[C@H]1O[C@@H](n2cnc3c(N)ncnc32)[C@H](O)[C@@H]1OP(=O)(O)O)[C@@H](O)C(=O)NCCC(=O)NCCSC(=O)/C=C/c1ccc(O)cc1 [p-coumaroyl-CoA] |  | very little product | 
B1 |  |  | FMT activity in ground stems (coniferyl ferulate detected) [3]: enzymatically active; FMT activity in leaf extracts (product peak at retention time of authentic coniferyl ferulate) (Angelica sinensis FMT): FMT activity was identified
B2 |  |  | FMT activity: production of coniferyl ferulate from coniferyl alcohol and feruloyl-CoA (Hibiscus cannabinus FMT): production of coniferyl ferulate (3) is visible
